The values that follow come from ChEMBL document CHEMBL4130525, “gem-Dinitroalkyl Benzenes: A Novel Class of IOP-Lowering Agents for the Treatment of Ocular Hypertension” (ACS Med Chem Lett, 2017).

Data set [1] deals with Thoracic aorta. The experiment in a line: Vasodilatory activity in denuded Wistar rat thoracic aorta assessed as relaxation of L-phenylephrine-induced contractions of aortic strips. It counts as functional, tissue-based.
Data set [2] relates to Oryctolagus cuniculus. The experiment in a line: Antiglaucoma activity in hypertonic saline-induced New Zealand albino rabbit transient ocular hypertensive model assessed as IOP lowering efficacy at 1% dose administered topically immediately after hypertonic saline injection measured at 60 mins post dose. It counts as functional.
Data set [3] deals with Oryctolagus cuniculus. The experiment in a line: Antiglaucoma activity in hypertonic saline-induced New Zealand albino rabbit transient ocular hypertensive model assessed as IOP lowering efficacy at 1% dose administered topically immediately after hypertonic saline injection measured at 120 mins post dose. The format is functional.
The test system of data set [4] is Oryctolagus cuniculus. The experiment in a line: Antiglaucoma activity in hypertonic saline-induced New Zealand albino rabbit transient ocular hypertensive model assessed as IOP lowering efficacy at 1% dose administered topically immediately after hypertonic saline injection measured at 240 mins post dose. It counts as functional.
Data set [5] is described as follows: n-Octanol-water distribution coefficient, log D of the compound at pH 7.4 after 20 mins by UV-spectrphotometric based shake-flask method. The format is physicochemical.
Data set [6] in a line: Ionization constant, pKa of the compound in KCl at pH 1.8 by potentiometric titration. The format is physicochemical.
The nature of data set [7]: Induction of NO release assessed as nitrite formation at 0.1 mM in HCl at pH 1.5 in absence of L-cysteine measured after 1 hr by Griess assay. The format is functional.
A short description of data set [8]: Induction of NO release assessed as nitrite formation at 0.1 mM in HCl at pH 1.5 in absence of L-cysteine measured after 6 hrs by Griess assay. The format is functional.
A short description of data set [9]: Drug metabolism assessed as anisic acid formation after 24 hrs by HPLC analysis. The format is physicochemical.
Data set [10] in a line: Induction of NO release assessed as nitrite formation at 0.1 mM in phosphate buffer saline at pH 1.5 to 7.4 measured up to 24 hrs by Griess assay. It counts as functional.
The nature of data set [11]: Lipophilicity, log P of the compound by shake flask method. The format is physicochemical. The note with it: octanol/water.
The nature of data set [12]: Induction of NO release assessed as nitrite formation at 0.1 mM in phosphate buffer saline at pH 7.4 in absence of L-cysteine measured after 1 hr by Griess assay. It counts as functional.
Data set [13] in a line: Induction of NO release assessed as nitrite formation at 0.1 mM in phosphate buffer saline at pH 7.4 in absence of L-cysteine measured after 6 hrs by Griess assay. It counts as functional.
Data set [14] can be described thus: Induction of NO release assessed as nitrite formation at 0.1 mM in phosphate buffer saline at pH 7.4 in presence of 5 mM of L-cysteine measured after 1 hr by Griess assay. It counts as functional.
Data set [15] in a line: Induction of NO release assessed as nitrite formation at 0.1 mM in phosphate buffer saline at pH 7.4 in presence of 5 mM of L-cysteine measured after 6 hrs by Griess assay. It counts as functional.
The nature of data set [16]: Induction of NO release assessed as nitrite formation at 0.1 mM in phosphate buffer saline at pH 7.4 in presence of 5 mM of L-cysteine by Griess assay. The format is functional. Conditions: TDE = time-dependent effect.
For data set [17], the system named is Thoracic aorta. The experiment in a line: Vasodilatory activity in denuded Wistar rat thoracic aorta assessed as relaxation of L-phenylephrine-induced contractions of aortic strips in presence of 1 uM of soluble guanylate cyclase inhibitor ODQ. The format is functional. The arrangement: scale not given: the % may be the effect or the level left.
The subject of data set [18] is Oryctolagus cuniculus. The experiment in a line: Antiglaucoma activity in carbomer-induced New Zealand albino rabbit transient ocular hypertensive model assessed as reduction in IOP at 1% dose administered topically everyday for 5 days measured 1 hr post drug instillation. The format is functional, organism-based.
The test system of data set [19] is Oryctolagus cuniculus. The experiment in a line: Antiglaucoma activity in carbomer-induced New Zealand albino rabbit transient ocular hypertensive model assessed as reduction in IOP at 1% dose administered topically measured after 24 hrs. It counts as functional, organism-based.
The nature of data set [20]: Induction of NO release assessed as nitrite formation at 0.1 mM in phosphate buffer saline at pH 7.4 in presence of 5 mM of L-cysteine measured up to 24 hrs by Griess assay. It counts as functional.
Data set [21] can be described thus: Induction of NO release assessed as nitrite formation at 0.1 mM in phosphate buffer saline at pH 7.4 in absence of L-cysteine measured up to 24 hrs by Griess assay. The format is functional.
[22] abbreviates: Rattus norvegicus, Thoracic aorta.

The structures appear in SMILES notation. “And” between values parts separate entries of the source, which are not always exact repeats. Identical values can stand only once. The source made the active and inactive calls. The calls are words filed in the database; no cut-off is given here.

In the case of `CCOC(=O)[N-]c1c[n+](N2CCOCC2)no1` [MOLSIDOMINE], the EC50 in the data set with Thoracic aorta [1] (setting [22]) worked out at 18 µM. Also, the Activity is on record as -4.6 mmHg in the data set with Oryctolagus cuniculus [2], 0.12 mmHg with Oryctolagus cuniculus [3] and -0.34 mmHg in the data set on Oryctolagus cuniculus [4]. The Drug metabolism result in the data set on Oryctolagus cuniculus [4] is reported as “Metabolite detected”.
As to `COc1ccc(C([N+](=O)[O-])[N+](=O)[O-])cc1`, the logD at 20 min in data set [5] is -1.21. In data set [6], this compound came in with a pKa of 3.9. Besides, the Activity in [7] was 1.3%; in data set [8], 4%; in the data set with Oryctolagus cuniculus [2], -10.7 mmHg; in the data set on Oryctolagus cuniculus [3], -1.1 mmHg; in data set [10], “Dose-dependent effect”. For the same compound, the 50% effective concentration (EC50) in the data set on Thoracic aorta [1] (setting [22]) was found to be 64 µM. Moreover, the outcome in the data set with Oryctolagus cuniculus [4] was Active. The Drug metabolism result in data set [9] is listed as “Dose-dependent effect”.
As to `Cc1ccc(C(C)([N+](=O)[O-])[N+](=O)[O-])cc1`, the logP in data set [11] turned out to be 2.69. Besides, the outcome in data set [12] and in data set [13] was inactive. In addition, the Activity in data set [14] is less than 0.5%; in [15] it was 1.3%; in [16] it was “Tde”; in the data set on Thoracic aorta [17] it was 24%; in the data set with Oryctolagus cuniculus [2], -4.9 mmHg; in the data set on Oryctolagus cuniculus [3], -6.7 mmHg. The Activity is -0.04 mmHg with Oryctolagus cuniculus [4] and “Dose-dependent effect” with Oryctolagus cuniculus [19]. Besides, the EC50 in the data set on Thoracic aorta [1] was 4 µM and 20 µM. Besides, in the data set on Oryctolagus cuniculus [18], the result was Active.
Take `CC(c1ccc(C(F)(F)F)cc1)([N+](=O)[O-])[N+](=O)[O-]`: the logP in [11] turned out to be 2.92. For the same compound, the outcome in data set [12] and in data set [13] was inactive. Also, the Activity is 0.8% in [14]; 4.6% in data set [15]; “Tde” in [16]; 19% in the data set on Thoracic aorta [17]; -6.9 mmHg in the data set on Oryctolagus cuniculus [2]; -10.4 mmHg in the data set on Oryctolagus cuniculus [3]. In addition, the Activity in the data set with Oryctolagus cuniculus [4] is -0.34 mmHg.
In [11], `COCCOCCOCCOc1ccc(C(C)([N+](=O)[O-])[N+](=O)[O-])cc1` came in with a logP of 1.63. Besides, the Activity is 2.6% in data set [12]; 12.8% in data set [13]; 2.7% in [14]; 13.8% in data set [15]; -12.7 mmHg in the data set with Oryctolagus cuniculus [2]; 0.11 mmHg with Oryctolagus cuniculus [3]. Further, the outcome (in data set [20]; in data set [21]; in the data set on Oryctolagus cuniculus [4]) was Active. For the same compound, in the data set on Thoracic aorta [1], the EC50 was 55 µM and 264 µM.
As to `CC(c1ccccc1)([N+](=O)[O-])[N+](=O)[O-]`, the logP in data set [11] stood at 2.34. The result in [12] and in [13] was inactive. In addition, the Activity in [14] is less than 0.5%; in data set [15] it was 2%; in [16], “Tde”; in the data set on Oryctolagus cuniculus [2] it was -5.6 mmHg; with Oryctolagus cuniculus [3] it was -10.5 mmHg; in the data set on Oryctolagus cuniculus [4], 0.3 mmHg. For the same compound, the EC50 in the data set with Thoracic aorta [1] is 50 µM and 24 µM.
Take `COc1ccc(C(C)([N+](=O)[O-])[N+](=O)[O-])cc1`: the logP in [11] is 2.2. The Activity in data set [12] is 3%; in data set [13] it was 24.9%; in [14], 3.5%; in [15] it was 25.4%; in the data set on Thoracic aorta [17], 40%; in the data set with Oryctolagus cuniculus [2], -7.3 mmHg. Moreover, the figures for the Activity (with Oryctolagus cuniculus [3]; in data set [10]) were -0.11 mmHg and “Dose-dependent effect”, respectively. Also, the outcome (in [20]; in [21]; in the data set with Oryctolagus cuniculus [4]) was Active.
